From patent US11324750B2, “Compositions and methods for the treatment of severe acute respiratory syndrome coronavirus 2 (SARS-CoV-2) infection” (Children's Hospital Medical Center, priority 2020, dated 2022)

What was measured:
SARS-CoV-2 [1] = experiment: Virus clearance time by RT-PCR on throat swab; format: in vivo; settings: median (IQR); patients with positive RT-PCR on throat swab; P 0.85 (table), P=0.65
SARS-CoV-2 [2] = experiment: SARS-CoV-2 copies number in blood by one-step RT-ddPCR; format: in vivo

N#CC[C@H](C1CCCC1)n1cc(-c2ncnc3[nH]ccc23)cn1 [Ruxolitinib, (3R)-3-cyclopentyl-3-[4-(7H-pyrrolo[2,3-d]pyrimidin-4-yl)pyrazol-1-yl]propanenitrile]
Virus clearance time (SARS-CoV-2 [1]): 13 days
Blood viral RNA loads at D1 (SARS-CoV-2 [2]; mean (±SEM), baseline, P=0.57 vs control): 94±26 copies per milliliter
Viral load at discharge (SARS-CoV-2 [2]; vs SoC alone, P=0.63): did not differ
